The text below walks through data of ChEMBL document CHEMBL1139279, “3,4-Disubstituted indole acylsulfonamides: a novel series of potent and selective human EP3 receptor antagonists” (Bioorg Med Chem Lett, 2009).

The test system of data set [1] is Liver microsomes. Kind of data set: Metabolic stability in rat liver microsomes at 5 uM after 30 mins. To be noted: 0.5 h. The format is ADME, Microsome.
The nature of data set [2]: Metabolic stability in human liver microsomes at 5 uM after 30 mins. The class given is ADME, Microsome. To be noted: read-out: Activity.
In data set [3] the target is T1, Prostaglandin E2 receptor EP3 subtype (Homo sapiens, UniProt P43115).
T1 sequence (P43115 whole entry): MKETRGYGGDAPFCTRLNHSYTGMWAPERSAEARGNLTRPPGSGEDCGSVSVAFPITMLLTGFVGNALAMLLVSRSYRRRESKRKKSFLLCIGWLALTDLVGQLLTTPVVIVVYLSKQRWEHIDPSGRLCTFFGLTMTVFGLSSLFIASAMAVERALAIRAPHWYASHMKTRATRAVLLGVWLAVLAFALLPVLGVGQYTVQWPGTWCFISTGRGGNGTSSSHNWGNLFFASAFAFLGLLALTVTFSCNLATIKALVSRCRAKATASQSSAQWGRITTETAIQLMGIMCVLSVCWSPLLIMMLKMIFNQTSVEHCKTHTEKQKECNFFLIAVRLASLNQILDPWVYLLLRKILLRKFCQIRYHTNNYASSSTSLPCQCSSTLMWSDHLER
Put plainly: Displacement of [3H]PGE2 from human EP3 receptor.

Data set [4] deals with T1, Prostaglandin E2 receptor EP3 subtype. Kind of data set: Displacement of [3H]PGE2 from human EP3 receptor in presence of 10% human serum.
For data set [5], the species on record is Homo sapiens. Kind of data set: Selectivity ratio of IC50 for human EP4 receptor to IC50 for human EP3 receptor.
The species named for data set [6] is Homo sapiens. Put plainly: Selectivity ratio of IC50 for human FP receptor to IC50 for human EP3 receptor.
Data set [7] concerns the target T2, Prostaglandin E2 receptor EP3 subtype (Mus musculus, UniProt P30557).
T2 sequence (P30557 whole entry): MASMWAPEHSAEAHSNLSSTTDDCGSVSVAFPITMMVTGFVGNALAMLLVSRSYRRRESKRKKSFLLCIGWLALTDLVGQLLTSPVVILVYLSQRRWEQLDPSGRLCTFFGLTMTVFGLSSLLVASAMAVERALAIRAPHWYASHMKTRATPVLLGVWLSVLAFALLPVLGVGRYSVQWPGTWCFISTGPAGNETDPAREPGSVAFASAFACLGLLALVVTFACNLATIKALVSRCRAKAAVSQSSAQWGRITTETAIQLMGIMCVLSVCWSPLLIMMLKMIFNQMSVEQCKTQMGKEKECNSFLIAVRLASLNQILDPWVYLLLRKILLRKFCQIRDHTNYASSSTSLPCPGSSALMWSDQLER
Put plainly: Displacement of [3H]PGE2 from mouse EP3 receptor.

The species entered for data set [8] is Homo sapiens. Kind of data set: Selectivity ratio of IC50 for human EP2 receptor to IC50 for human EP3 receptor.
Data set [9] is filed under the species Homo sapiens. Put plainly: Selectivity ratio of IC50 for human EP1 receptor to IC50 for human EP3 receptor.
The species named for data set [10] is Rattus norvegicus. Put plainly: Ex vivo inhibition of platelet aggregation in rat platelet-rich plasma. The class given is functional, organism-based.
Data set [11] deals with T1, Prostaglandin E2 receptor EP3 subtype. Put plainly: Antagonist activity at human EP3 receptor assessed as cAMP production by cell-based assay. The format is functional.
Data set [12] is filed under the species Homo sapiens. Put plainly: Selectivity ratio of IC50 for human IP receptor to IC50 for human EP3 receptor.

In turn, `O=C(COc1cccc2[nH]cc(S(=O)(=O)c3ccc(Cl)cc3)c12)NS(=O)(=O)c1cc(Cl)c(Cl)s1` came in with an Activity in [1] of 98%. Also, in data set [2], the remaining at 0.5 h, 5 µM amounted to 75%.

`NC(=O)Cc1ccc(S(=O)(=O)c2c[nH]c3cccc(OCC(=O)NS(=O)(=O)c4cc(Cl)c(Cl)s4)c23)cc1` yielded a 50% inhibitory concentration (IC50) in data set [3] of 27.8 nM. Also, in data set [4], the fold shift worked out at 5.

`COc1ccc(S(=O)(=O)NC(=O)COc2cccc3[nH]cc(S(=O)(=O)c4ccc5ccccc5c4)c23)cc1` gave an IC50 in [3] of 544 nM.

As for `Cn1nnnc1Sc1c[nH]c2cccc(OCC(=O)NS(=O)(=O)c3cc(Cl)c(Cl)s3)c12`, the IC50 in data set [3] is 8.2 nM. For the same compound, the fold shift in data set [4] came out at 58.3.

Regarding `O=C(COc1cccc2[nH]cc(Sc3ccc4ccccc4c3)c12)NS(=O)(=O)c1cccs1`, the 50% inhibitory concentration (IC50) in data set [3] is 3 nM. The fold shift in data set [4] came out at 27.5.

In turn, `O=C(COc1cccc2[nH]cc(S(=O)(=O)c3ccc4ccccc4n3)c12)NS(=O)(=O)c1cc(Cl)c(Cl)s1` returned an Activity in data set [1] of 68%. For the same compound, the remaining at 0.5 h, 5 µM in data set [2] is 60%.

For `COc1ccc(S(=O)(=O)c2c[nH]c3cccc(OCC(=O)NS(=O)(=O)c4cc(Cl)c(Cl)s4)c23)cc1OC`, the IC50 in data set [3] worked out at 11.4 nM.

As for `O=C(COc1cccc2[nH]cc(S(=O)(=O)c3nc[nH]n3)c12)NS(=O)(=O)c1cc(Cl)c(Cl)s1`, the IC50 in [3] worked out at 236 nM.

`COc1ccc(Sc2c[nH]c3cccc(OCC(=O)NS(=O)(=O)c4cc(Cl)c(Cl)s4)c23)cc1` registered an IC50 in data set [3] of 0.5 nM. Besides, in data set [4], the fold shift worked out at 22.6.

With `O=C(COc1cccc2[nH]cc(S(=O)(=O)c3ccc(Cl)c(Cl)c3)c12)NS(=O)(=O)c1cc(Cl)c(Cl)s1`, the Ratio IC50 in data set [5] worked out at 4220; in [6], 384; in [8] it was 1450; in data set [9], 5190; in data set [12], 2710. In addition, the IC50 came to 2 nM in data set [7], 4.7 nM in data set [3], 136 nM in data set [10] and 1 nM in data set [11]. In data set [1], this compound showed an Activity of 68.8%. Besides, in data set [4], the fold shift turned out to be 3.6. For the same compound, the remaining at 0.5 h, 5 µM in data set [2] was 69.7%.

Regarding `Cn1c(Sc2c[nH]c3cccc(OCC(=O)NS(=O)(=O)c4cc(Cl)c(Cl)s4)c23)nc2ccccc21`, in data set [3], the IC50 amounted to 2.5 nM. The fold shift in data set [4] was 10.5.

In data set [3], `O=C(COc1cccc2[nH]cc(Sc3ccc4ccccc4c3)c12)NS(=O)(=O)c1ccccc1Cl` came in with a concentration for half-maximal inhibition (IC50) of 1.4 nM. In [4], the fold shift stood at 48.7.

Compound `O=C(COc1cccc2[nH]cc(S(=O)(=O)c3ccc(F)cc3Cl)c12)NS(=O)(=O)c1cc(Cl)c(Cl)s1` displayed a concentration for half-maximal inhibition (IC50) in data set [3] of 20.2 nM. In [4], the fold shift came out at 10.7.

With `Cc1ccc(Sc2c[nH]c3cccc(OCC(=O)NS(=O)(=O)c4cc(Cl)c(Cl)s4)c23)c(C)c1`, the Ratio IC50 came out at 1860 in data set [5]; 401 in data set [6]; 1290 in data set [8]; 13100 in data set [9]; 31600 in data set [12]. In addition, the IC50 in data set [3] was 1.3 nM. In data set [4], the fold shift stood at 5.2.

For the compound `O=C(COc1cccc2[nH]cc(Sc3nc4ccccc4s3)c12)NS(=O)(=O)c1cc(Cl)c(Cl)s1`, the Ratio IC50 in [5] is 2390; in data set [6], 300; in data set [8] it was 1660; in [12], 1060. The IC50 in data set [3] is 7.6 nM. Also, the fold shift in data set [4] is 9.8.

Turning to `O=C(COc1cccc2[nH]cc(Sc3ccc(Cl)c(Cl)c3)c12)NS(=O)(=O)c1cc(Cl)c(Cl)s1`, the Ratio IC50 in [5] was 1770; in [6], 596; in data set [8], 950; in [9] it was 10800; in [12] it was 4480. The IC50 amounted to 15.5 nM in [7], 1.3 nM in [3], 358 nM in [10] and 0.3 nM in data set [11]. The same compound returned an Activity in data set [1] of 74%. For the same compound, the fold shift in [4] came to 1.1. Also, in [2], the remaining at 0.5 h, 5 µM stood at 46%.

Compound `COc1ccc(S(=O)(=O)c2c[nH]c3cccc(OCC(=O)NS(=O)(=O)c4cc(Cl)c(Cl)s4)c23)cc1` returned an IC50 in data set [3] of 30 nM.

`O=C(COc1cccc2[nH]cc(S(=O)(=O)c3ccc(Cl)cc3Cl)c12)NS(=O)(=O)c1cc(Cl)c(Cl)s1` displayed an Activity in data set [1] of 72%. The remaining at 0.5 h, 5 µM in data set [2] came out at 79%.

`COc1ccccc1Sc1c[nH]c2cccc(OCC(=O)NS(=O)(=O)c3cc(Cl)c(Cl)s3)c12`: the IC50 in data set [3] came to 24 nM. Also, the fold shift in data set [4] is 13.2.

As to `O=C(COc1cccc2[nH]cc(Sc3ccc4ccccc4c3)c12)NS(=O)(=O)c1cccc(Cl)c1`, the Ratio IC50 was 1360 in [5]; 1030 in data set [6]; 1090 in [8]; 12300 in [9]; 1300 in data set [12]. This compound registered an IC50 in [3] of 2 nM. In data set [4], the fold shift amounted to 2.2.

In data set [3], `Cc1ccc(S(=O)(=O)c2c[nH]c3cccc(OCC(=O)NS(=O)(=O)c4cc(Cl)c(Cl)s4)c23)c(C)c1` gave an IC50 of 5.7 nM. In addition, the fold shift in [4] worked out at 33.2.

Regarding `O=C(COc1cccc2[nH]cc(Sc3ccc(Cl)cc3)c12)NS(=O)(=O)c1cc(Cl)c(Cl)s1`, the Activity in [1] turned out to be 14%. In addition, in data set [2], the remaining at 0.5 h, 5 µM stood at 52%.

`Cn1nnnc1S(=O)(=O)c1c[nH]c2cccc(OCC(=O)NS(=O)(=O)c3cc(Cl)c(Cl)s3)c12` returned an IC50 in [3] of 88.4 nM.

In the case of `Cc1nnc(Sc2c[nH]c3cccc(OCC(=O)NS(=O)(=O)c4cc(Cl)c(Cl)s4)c23)s1`, in [3], the IC50 is 36.7 nM.

Compound `O=C(COc1cccc2[nH]cc(Sc3ccccc3Cl)c12)NS(=O)(=O)c1cc(Cl)c(Cl)s1` registered an IC50 in data set [3] of 13.7 nM. The fold shift in data set [4] is 5.8.

As for `O=C(COc1cccc2[nH]cc(Sc3ccc(Cl)cc3Cl)c12)NS(=O)(=O)c1cc(Cl)c(Cl)s1`, the Ratio IC50 is 8880 in data set [5]; 2030 in data set [6]; 6230 in data set [8]; 3520 in data set [9]; 3350 in data set [12]. The IC50 in data set [3] was 27.6 nM. This compound also registered an Activity in [1] of 0%. Further, the fold shift in data set [4] is 0.2. The remaining at 0.5 h, 5 µM in data set [2] is 37%.

As to `O=C(COc1cccc2[nH]cc(Sc3ccc4ccccc4n3)c12)NS(=O)(=O)c1cc(Cl)c(Cl)s1`, the Activity in [1] turned out to be 35%. The remaining at 0.5 h, 5 µM in data set [2] is 23%.

In [3], `O=C(COc1cccc2[nH]cc(S(=O)(=O)c3ccc4ccccc4c3)c12)NS(=O)(=O)c1cccc(Cl)c1` showed an IC50 of 5.9 nM.
